The target in assay [1] is T1, Vitamin D3 receptor (Sus scrofa) (UniProt A3RGC1).
T1 sequence (whole entry): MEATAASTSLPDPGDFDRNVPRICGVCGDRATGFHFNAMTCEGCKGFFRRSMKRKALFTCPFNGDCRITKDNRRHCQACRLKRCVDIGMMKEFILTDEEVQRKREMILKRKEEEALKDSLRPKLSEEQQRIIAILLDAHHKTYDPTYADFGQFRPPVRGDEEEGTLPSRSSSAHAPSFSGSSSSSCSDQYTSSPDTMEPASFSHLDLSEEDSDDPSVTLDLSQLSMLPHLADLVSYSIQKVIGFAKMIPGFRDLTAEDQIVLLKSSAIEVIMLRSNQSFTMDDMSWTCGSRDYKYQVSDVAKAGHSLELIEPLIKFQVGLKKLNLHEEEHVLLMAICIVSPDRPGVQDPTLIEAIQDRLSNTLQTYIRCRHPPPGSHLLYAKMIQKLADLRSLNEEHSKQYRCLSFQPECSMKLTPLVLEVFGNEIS
Put plainly: (§1) Displacement of 50% binding of [3H]alpha,25 (OH)2D3 from pig intestinal mucosa Vitamin D3 receptor. It is filed as tissue-based.

Assay [2] has as its system MCF7. Put plainly: Percent inhibition against MCF-7 cell line (50% dose response), relative to 1-alpha,25 (OH)2D3 (100% activity) determined in vitro. The assay is classed as functional, Homo sapiens. Also noted: scale not given: the % may be the effect or the level left.
For assay [3], the system named is Keratinocyte. Put plainly: Percent inhibition against Keratinocytes cell line (50% dose response), relative to 1-alpha,25 (OH)2D3 (100% activity) determined in vitro. It is filed as functional, Homo sapiens. Also noted: scale not given: the % may be the effect or the level left.
Assay [4] has as its system HL-60. Put plainly: Percent inhibition against HL-60 cell line (50% dose response), relative to 1-alpha,25 (OH)2D3 (100% activity) determined in vitro. Set-up: scale not given: the % may be the effect or the level left. It is filed as functional, Homo sapiens.
The test system of assay [5] is Mus musculus. The assay can be described thus: Calcemic effect in vivo in vitamin D-replete normal NMRI mice by daily intraperitoneal injections of compound and 1-alpha,25 (OH)2D3 for 7 consecutive days. The assay is classed as functional.
For assay [6], the target named is T1, Vitamin D3 receptor (Sus scrofa). The assay is described as §1.

In assay [1], `C=C1C(=CC=C[C@@H]2CC[C@](C)([C@@H](C)CC(C)CC#CC(O)(CC)CC)C2(C)C)C[C@@H](O)C[C@@H]1O` (stereo not given in full) showed a Relative affinity of 80. For the same molecule, the Activity in assay [2] is given as 750%; in assay [3], 800%; in assay [4], 600%; in assay [5], 25%.

`C=C1C(=CC=C[C@@H]2CC[C@](C)([C@@H](C)CC(C)CCCC(O)(CC)CC)C2(C)C)C[C@@H](O)C[C@@H]1O` (stereo not given in full) gave a Relative affinity in assay [1] of 85. The Activity in assay [2] is 15000%; in assay [3] it was 7000%; in assay [4], 1250%; in assay [5], 100%.

For `C=C1C(=CC=C[C@@H]2CC[C@](C)([C@H](C)CC(C)CC#CC(C)(C)O)C2(C)C)C[C@@H](O)C[C@@H]1O` (stereo not given in full), the Activity in assay [2] is reported as 600%; in assay [3] it was 500%; in assay [4], 80%; in assay [5], 3%. Also, the Relative affinity in assay [6] was 60.

The molecule `CC(CCCC(C)(C)O)C[C@H](C)[C@@]1(C)CC[C@@H](/C=C/C=C2C[C@@H](O)C[C@H](O)C2)C1(C)C` (stereo not given in full) came in with a Relative affinity in assay [1] of 40. For the same molecule, the Activity is recorded as 400% in assay [2], 600% in assay [3], 600% in assay [4] and 0.5% in assay [5].

With `CCC(O)(CC)CCCC(C)C[C@H](C)[C@@]1(C)CC[C@@H](/C=C/C=C2C[C@@H](O)C[C@H](O)C2)C1(C)C` (stereo not given in full), in assay [1], the Relative affinity was found to be 60. The Activity is listed as 7500% in assay [2], 7000% in assay [3], 500% in assay [4] and 20% in assay [5].

With `C=C1C(=CC=C[C@@H]2CC[C@](C)([C@@H](C)CC(C)CCCC(O)(C(F)(F)F)C(F)(F)F)C2(C)C)C[C@@H](O)C[C@@H]1O` (stereo not given in full), the Relative affinity in assay [1] came out at 60. In addition, the Activity in assay [2] was 30000%; in assay [3], 20000%; in assay [4], 400%; in assay [5] it was more than 100%.

In assay [1], `C=C1C(=CC=C[C@@H]2CC[C@](C)([C@@H](C)CC(C)CC#CC(O)(C(F)(F)F)C(F)(F)F)C2(C)C)C[C@@H](O)C[C@@H]1O` (stereo not given in full) yielded a Relative affinity of 75. The Activity in assay [2] is listed as 8000%; in assay [3], 15000%; in assay [4], 1250%; in assay [5], 25%.

For `CC(CC#CC(O)(C(F)(F)F)C(F)(F)F)C[C@@H](C)[C@@]1(C)CC[C@@H](/C=C/C=C2C[C@@H](O)C[C@H](O)C2)C1(C)C` (stereo not given in full), the Activity is 1500% in assay [2], 3000% in assay [3], 300% in assay [4] and 3% in assay [5]. Besides, in assay [6], the Relative affinity stood at 50.

For the molecule `CC(CC#CC(O)(C(F)(F)F)C(F)(F)F)C[C@H](C)[C@@]1(C)CC[C@@H](/C=C/C=C2C[C@@H](O)C[C@H](O)C2)C1(C)C` (stereo not given in full), the Relative affinity in assay [1] turned out to be 50. Also, the Activity is 6000% in assay [2], 15000% in assay [3], 400% in assay [4] and 25% in assay [5].

`C=C1C(=CC=C[C@@H]2CC[C@](C)([C@@H](C)CC(C)CC#CC(C)(C)O)C2(C)C)C[C@@H](O)C[C@@H]1O` (stereo not given in full) yielded a Relative affinity in assay [1] of 75. In addition, the Activity in assay [2] is 1250%; in assay [3], 3250%; in assay [4], 800%; in assay [5], 3%.

Molecule `CCC(O)(C#CCC(C)C[C@H](C)[C@@]1(C)CC[C@@H](/C=C/C=C2C[C@@H](O)C[C@H](O)C2)C1(C)C)CC` (stereo not given in full) came in with a Relative affinity in assay [1] of 60. Also, the Activity in assay [2] is 700%; in assay [3], 300%; in assay [4], 400%; in assay [5] it was 2%.

As to `C=C1C(=CC=C[C@@H]2CC[C@](C)([C@H](C)CC(C)CCCC(O)(CC)CC)C2(C)C)C[C@@H](O)C[C@@H]1O` (stereo not given in full), the Activity in assay [2] is 300%; in assay [3] it was 400%; in assay [4], 150%; in assay [5], 2%. Further, the Relative affinity in assay [6] stood at 50.

In the case of `CC(CCCC(O)(C(F)(F)F)C(F)(F)F)C[C@H](C)[C@@]1(C)CC[C@@H](/C=C/C=C2C[C@@H](O)C[C@H](O)C2)C1(C)C` (stereo not given in full), the Relative affinity in assay [1] was 40. Also, the Activity in assay [2] is given as 20000%; in assay [3] it was 16000%; in assay [4] it was 400%; in assay [5] it was 100%.

Take `CCC(O)(CC)CCCC(C)C[C@@H](C)[C@@]1(C)CC[C@@H](/C=C/C=C2C[C@@H](O)C[C@H](O)C2)C1(C)C` (stereo not given in full): the Activity is given as 150% in assay [2], 300% in assay [3], 80% in assay [4] and 0.5% in assay [5]. For the same molecule, the Relative affinity in assay [6] amounted to 10.

In the case of `C=C1/C(=C\C=C2/CCC[C@]3(C)[C@@H]([C@H](C)CCCC(C)(C)O)CC[C@@H]23)C[C@@H](O)C[C@@H]1O` [CALCITRIOL], the Relative affinity in assay [1] came to 100. The Activity in assay [2], in assay [3], in assay [4] and in assay [5] was 100% in each case.

As to `C=C1C(=CC=C[C@@H]2CC[C@](C)([C@H](C)CC(C)CCCC(O)(C(F)(F)F)C(F)(F)F)C2(C)C)C[C@@H](O)C[C@@H]1O` (stereo not given in full), the Activity in assay [2] is 2500%; in assay [3], 2400%; in assay [4], 150%; in assay [5], 10%. For the same molecule, in assay [6], the Relative affinity turned out to be 30.

For the molecule `C=C1C(=CC=C[C@@H]2CC[C@](C)([C@H](C)CC(C)CC#CC(O)(CC)CC)C2(C)C)C[C@@H](O)C[C@@H]1O` (stereo not given in full), the Activity is 150% in assay [2], 80% in assay [3], 75% in assay [4] and 2% in assay [5]. For the same molecule, the Relative affinity in assay [6] was determined as 80.

As for `C=C1C(=CC=C[C@@H]2CC[C@](C)([C@H](C)CC(C)CC#CC(O)(C(F)(F)F)C(F)(F)F)C2(C)C)C[C@@H](O)C[C@@H]1O` (stereo not given in full), the Activity in assay [2] is on record as 4500%; in assay [3], 3600%; in assay [4], 250%; in assay [5], 6%. The molecule further displayed a Relative affinity in assay [6] of 60.

On to `C=C1C(=CC=C[C@@H]2CC[C@](C)([C@H](C)CC(C)CCCC(C)(C)O)C2(C)C)C[C@@H](O)C[C@@H]1O` (stereo not given in full), for which the Activity in assay [2] is recorded as 60%; in assay [3], 100%; in assay [4], 50%; in assay [5], 0.25%. The Relative affinity in assay [6] worked out at 6.

On to `CC(CC#CC(C)(C)O)C[C@@H](C)[C@@]1(C)CC[C@@H](/C=C/C=C2C[C@@H](O)C[C@H](O)C2)C1(C)C` (stereo not given in full), for which the Activity in assay [2] is reported as 70%; in assay [3], 200%; in assay [4], 85%; in assay [5], 0.12%. The molecule further had a Relative affinity in assay [6] of 7.

As for `C=C1C(=CC=C[C@@H]2CC[C@](C)([C@@H](C)CC(C)CCCC(C)(C)O)C2(C)C)C[C@@H](O)C[C@@H]1O` (stereo not given in full), the Activity in assay [2] is on record as 2000%; in assay [3], 1000%; in assay [4], 800%; in assay [5], 8%. Also, in assay [6], the Relative affinity came to 85.

On to `CC(CCCC(C)(C)O)C[C@@H](C)[C@@]1(C)CC[C@@H](/C=C/C=C2C[C@@H](O)C[C@H](O)C2)C1(C)C` (stereo not given in full), for which the Activity in assay [2] is reported as 8%; in assay [3] it was 80%; in assay [4], 10%; in assay [5], 0.12%. Further, in assay [6], the Relative affinity is 3.

Regarding `CC(CCCC(O)(C(F)(F)F)C(F)(F)F)C[C@@H](C)[C@@]1(C)CC[C@@H](/C=C/C=C2C[C@@H](O)C[C@H](O)C2)C1(C)C` (stereo not given in full), the Activity is given as 600% in assay [2], 1500% in assay [3], 100% in assay [4] and 50% in assay [5]. The Relative affinity in assay [6] amounted to 9.

The molecule `CC(CC#CC(C)(C)O)C[C@H](C)[C@@]1(C)CC[C@@H](/C=C/C=C2C[C@@H](O)C[C@H](O)C2)C1(C)C` (stereo not given in full) had a Relative affinity in assay [1] of 40. Also, the Activity in assay [2] is 1300%; in assay [3], 2000%; in assay [4], 350%; in assay [5] it was 4%.

Take `CCC(O)(C#CCC(C)C[C@@H](C)[C@@]1(C)CC[C@@H](/C=C/C=C2C[C@@H](O)C[C@H](O)C2)C1(C)C)CC` (stereo not given in full): the Activity in assay [2] is 85%; in assay [3], 85%; in assay [4] it was 50%; in assay [5], 0.25%. The Relative affinity in assay [6] amounted to 50.

The values above are taken from ChEMBL document CHEMBL1135858, “Vitamin D(3): synthesis of seco-C-9,11-bisnor-17-methyl-1 alpha,25-dihydroxyvitamin D(3) analogues” (2002).
